# Assay results: US7455996B2, “Soybean raffinose synthase and a method for producing raffinose” (priority 1996, dated 2008)
# B1: raffinose synthase: raffinose synthase purified from cucumber leaf vein tissues, amino acid sequence SEQ ID NO: 5 (protein, listed as Cucumis sativus)
# chain: MAPSFKNGGSNVVSFDGLNDMSSPFAIDGSDFTVNGHSFLSDVPENIVASPSPYTSIDKSPVSVGCFVGFDASEPDSRHVVSIGKLKDIRFMSIFRFKVWWTTHWVGRNGGDLESETQIVILEKSDSGRPYVFLLPIVEGPFRTSIQPGDDDFVDVCVESGSSKVVDASFRSMLYLHAGDDPFALVKEAMKIVRTHLGTFRLLEEKTPPGIVDKFGWCTWDAFYLTVHPQGVIEGVRHLVDGGCPPGLVLIDDGWQSIGHDSDPITKEGMNQTVAGEQMPCRLLKFQENYKFRDYVNPKATGPRAGQKGMKAFIDELKGEFKTVEHVYVWHALCGYWGGLRPQVPGLPEARVIQPVLSPGLQMTMEDLAVDKIVLHKVGLVPPEKAEEMYEGLHAHLEKVGIDGVKIDVIHLLEMLCEDYGGRVDLAKAYYKAMTKSINKHFKGNGVIASMEHCNDFMFLGTEAISLGRVGDDFWCTDPSGDPNGTFWLQGCHMVHCANDSLWMGNFIHPDWDMFQSTHPCAAFHAASRAISGGPIYVSDSVGKHNFDLLKKLVLPDGSILRSEYYALPTRDCLFEDPLHNGETMLKIWNLNKFTGVIGAFNCQGGGWCRETRRNQCFSQYSKRVTSKTNPKDIEWHSGENPISIEGVKTFALYLYQAKKLILSKPSQDLDIALDPFEFELITVSPVTKLIQTSLHFAPIGLVNMLNTSGAIQSVDYDDDLSSVEIGVKGCGEMRVFASKKPRACRIDGEDVGFKYDQDQMVVVQVPWPIDSSSGGISVIEYLF
# Experiments:
# raffinose synthase [1] = experiment: raffinose synthase activity with enzyme inhibitors or metal ions added; type: biochemical, cucumber; conditions: final concentration of 1 mM; for Remaining activity (%): with respect to activity when neither inhibitor nor metal ion was added
# Method: (§1) The activity of the raffinose synthase was measured by quantitatively determining raffinose produced by the raffinose synthesis reaction by using HPLC (high-performance liquid chromatography). HPLC was performed by using Sugar Analysis System DX500 (CarboPac PA1column, pulsed amperometry detector (produced by DIONEX)).
# (§2) For the raffinose synthesis reaction, to a reaction solution prepared to have a composition having the following final concentrations, 10 to 50 μl of a raffinose synthase solution was added to give a volume of 100 μl followed by performing the reaction at 32° C. for 60 minutes.
# (§3) After performing the reaction as described above, the reaction was stopped by adding to the reaction solution, ethanol in a volume four times the volume of the reaction solution and heating the solution at 95° C. for 30 seconds. The obtained solution was centrifuged to obtain a supernatant and the supernatant was then dried up under a reduced pressure. After that, an obtained residue was dissolved in distilled water. Raffinose in the reaction product was quantitatively determined by using the sugar analysis system to estimate the raffinose synthase activity.
# Various enzyme inhibitors or metal ions were added to the reaction solution of the purified raffinose synthase to give a final concentration of 1 mM respectively, and the raffinose synthase activity was measured in the same manner as described above.
# raffinose synthase [2] = experiment: inhibition of raffinose synthase activity by myo-inositol; type: biochemical, cucumber; conditions: myo-inositol added at various concentrations (FIG. 5)
# Method: as §1, §2, §3
# Investigation was made for inhibition by myo-inositol as the reaction product of the raffinose synthesis reaction. To the reaction solution, myo-inositol was added at various concentrations, and the raffinose synthase activity was measured. […]
# [3] = raffinose synthase activity of purification fractions (HPLC determination of raffinose); type: biochemical, cucumber; conditions: purified active fraction after hydroxyapatite rechromatography
# Method: as §1, §2, §3
# The amount of protein contained in the active fraction was about 200 μg. The total activity was 5700 nmol/hour, and the specific activity per protein was about 28 μmol/hour/mg. […]
# [4] = optimum reaction temperature of raffinose synthase; type: biochemical, cucumber; conditions: measured at 28 to 52° C.
# Method: as §1, §2, §3
# The raffinose synthase activity was measured under various temperature conditions (28° C., 32° C., 36° C., 40° C., 44° C., 48° C., and 52° C.) in accordance with the method for measuring the raffinose synthase activity described above. […]
# [5] = optimum reaction pH of raffinose synthase; type: biochemical, cucumber; conditions: pH 4 to 11, various buffers
# Method: as §1, §2, §3
# The raffinose synthase activity was measured under various pH conditions (pH 4 to 11) in accordance with the method for measuring the raffinose synthase activity described above. […]
# [6] = stable pH of raffinose synthase; type: physicochemical, cucumber; conditions: fraction from anion exchange chromatography (2); incubated 4 hours at 4° C.
# Method: The raffinose synthase fraction obtained by the anion exchange chromatography (2) described above was incubated for 4 hours at 4° C. in 50 mM Bis-Tris-HCl buffer (pH 5 to 8.0, containing 0.5 mM DTT) or 20 mM Tris-HCl buffer (pH 7 to 8.0, containing 0.5 mM DTT), and then the raffinose synthase activity was measured. […] The raffinose synthase activity was confirmed after the incubation under any of the incubation conditions. Especially, the enzyme was stable in a range of pH 5 to 7.5.
# [7] = stable temperature of raffinose synthase; type: physicochemical, cucumber; conditions: fraction from anion exchange chromatography (2); 60 minutes at 28° C. to 40° C., pH 7
# Method: The raffinose synthase fraction obtained by the anion exchange chromatography (2) described above was incubated in 20 mM Tris-HCl buffer (pH 7, containing 0.5 mM DTT) for 60 minutes at 28° C., 32° C., 37° C., or 40° C., and then the raffinose synthase activity was measured.
Molecule,inhibiting effect on the enzyme activity (raffinose synthase [1]),Remaining activity (%) (raffinose synthase [1]),also measured
[Ca+2].[Cl-].[Cl-] [CaCl2],scarcely observed,115%,
[Cl][Cu][Cl] [CuCl2],scarcely observed,101%,
"NC(=O)CI [Iodoacetoamide, Iodoacetamide]",remarkably inhibited,0%,
[Cl-].[Cl-].[Mg+2] [MgCl2],scarcely observed,96%,
[Cl][Mn][Cl] [MnCl2],exhibited the inhibiting effect,32%,
CCN1C(=O)C=CC1=O [N-ethylmaleimide],remarkably inhibited,40%,
[Cl][Ni][Cl] [NiCl2],exhibited the inhibiting effect,68%,
[Cl-].[Cl-].[Zn+2] [ZnCl2],exhibited the inhibiting effect,42%,
O[C@H]1[C@H](O)[C@@H](O)[C@H](O)[C@@H](O)[C@H]1O [myo-inositol],,,inhibition of the enzyme activity by myo-inositol (raffinose synthase [2]): inhibited
B1,,,specific activity per protein [3]: about 28 μmol/hour/mg; optimum reaction temperature [4]: 35 to 40 °C; temperature range in which activity was exhibited [4]: 25 to 42 °C; optimum reaction pH [5]: 6 to 8 pH; pH range in which activity was exhibited [5]: 5 to 10 pH; stable pH range [6]: 5 to 7.5 pH; activity after incubation relative to non-incubated control [7]: 80% to 100
